The record followed here is patent US20240116985A1, “STAPLED PEPTIDES AND METHODS THEREOF” (priority 2020, published 2024).

A word on the IC50: it is the point on the concentration scale where inhibition reaches its midpoint.

Assay [1] has as its target T1, beta-catenin/TCF4 engagement (Homo sapiens, UniProt P35222).
T1 construct: expressed in transfected cells; host or cells: HEK293
T1 sequence (P35222 1-781): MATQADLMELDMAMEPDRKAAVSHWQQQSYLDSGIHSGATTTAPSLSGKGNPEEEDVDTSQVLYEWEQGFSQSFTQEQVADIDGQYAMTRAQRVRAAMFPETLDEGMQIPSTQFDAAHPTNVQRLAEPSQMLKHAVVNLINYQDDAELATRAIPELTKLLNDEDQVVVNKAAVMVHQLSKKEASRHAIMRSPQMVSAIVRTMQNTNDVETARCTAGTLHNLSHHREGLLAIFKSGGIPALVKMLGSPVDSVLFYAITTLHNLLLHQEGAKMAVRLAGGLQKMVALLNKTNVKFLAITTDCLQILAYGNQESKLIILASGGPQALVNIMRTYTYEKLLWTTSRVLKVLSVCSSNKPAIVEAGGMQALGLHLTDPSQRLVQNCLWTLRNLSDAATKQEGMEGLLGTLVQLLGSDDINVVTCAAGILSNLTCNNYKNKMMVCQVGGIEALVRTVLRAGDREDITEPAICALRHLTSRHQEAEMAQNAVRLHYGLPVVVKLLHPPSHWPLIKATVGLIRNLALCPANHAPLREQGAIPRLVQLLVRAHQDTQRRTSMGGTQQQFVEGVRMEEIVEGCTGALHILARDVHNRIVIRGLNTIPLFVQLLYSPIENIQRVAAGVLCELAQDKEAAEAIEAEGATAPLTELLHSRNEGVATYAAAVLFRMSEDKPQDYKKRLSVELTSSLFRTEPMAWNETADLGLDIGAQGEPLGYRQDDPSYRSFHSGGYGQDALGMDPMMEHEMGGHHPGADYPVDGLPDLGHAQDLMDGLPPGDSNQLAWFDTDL
Nature of the assay: Nano-BRET target engagement assay (B-cat-Halo & TCF4-Luc in HEK293 cells). The class given is cell-based. Conditions: absolute IC50; read-out: NanoBRET Abs IC50. For orientation: In BRET a luciferase serves as donor, and the signal depends on an acceptor being close.

In assay [2] the target is T2, full-length beta-Catenin (Uniprot ID P35222) (Homo sapiens, UniProt P35222).
T2 construct: 10 nM full-length beta-Catenin (Uniprot ID P35222)
T2 sequence (P35222 1-781): T1 sequence (P35222 1-781)
Put plainly: Fluorescence polarization IC50 (beta-catenin / 5FAM-TCF4 10-53 competition). Conditions: fluorescence polarization; read-out: beta-Catenin FP IC50. The class given is binding. (In general: In fluorescence polarisation assays a small probe gives low polarisation when free and higher when bound to something large.)

For the molecule `CC(=O)N1CCC[C@]12CC=CCCCC1(CCCC=CCCCOC(=O)N3CC[C@@](C(=O)N[C@@H](Cc4ccsc4)C(=O)N[C@@H](Cc4csc5ccccc45)C(=O)N[C@@H](Cc4ccc(O)cc4)C(N)=O)(C3)NC(=O)[C@H](CC(N)=O)NC(=O)[C@H](Cc3ccccc3)NC(=O)[C@H](C)NC(=O)C(C)(C)NC(=O)[C@H]([C@@H](C)O)NC(=O)[C@H](CC(N)=O)NC1=O)NC(=O)[C@H](CC(C)(C)C)NC(=O)[C@H](CC(=O)O)NC2=O` (stereo partly drawn) [I-2478, Ac-PL3-Asp-Npg-B5-Asn-Thr-Aib-Ala-Phe-Asn-PyrS2-3Thi-BztA-Tyr-NH2], the IC50 in assay [1] is more than 20 µM; in assay [2] it was 0.31 µM.
Taken in the same sequence, the figures for `CC(=O)N1CCC[C@]12CC=CCCCC1(CCCC=CCCCOC(=O)N3CC[C@@](C(=O)N[C@@H](Cc4ccccc4C(F)(F)F)C(=O)N[C@@H](Cc4c(C(F)(F)F)[nH]c5ccccc45)C(=O)N[C@@H](CCC(N)=O)C(N)=O)(C3)NC(=O)[C@H](CC(C)C)NC(=O)[C@H](Cc3ccccc3)NC(=O)[C@H](C)NC(=O)[C@H](C)NC(=O)[C@H](Cc3cccc(C(=O)O)c3)NC(=O)[C@H](CC(=O)O)NC1=O)NC(=O)[C@H](CC(C)(C)C)NC(=O)[C@H](CC(=O)O)NC2=O` (stereo partly drawn) [I-2484, Ac-PL3-Asp-Npg-B5-Asp-3COOHF-Ala-Ala-Phe-Leu-PyrS2-2F3MeF-2F3MeW-Gln-NH2] were more than 20 µM and 6.29 µM.
For `CC(=O)N1CCC[C@]12CC=CCCCC1(CCCC=CCCCOC(=O)N3CC[C@@](C(=O)N[C@@H](Cc4ccccc4C(F)(F)F)C(=O)N[C@@H](Cc4c(C(F)(F)F)[nH]c5ccccc45)C(=O)N[C@@H](C)C(N)=O)(C3)NC(=O)[C@H](CC(C)C)NC(=O)[C@H](Cc3ccccc3)NC(=O)[C@H](C)NC(=O)[C@H](CCC(N)=O)NC(=O)[C@H](Cc3cccc(C(=O)O)c3)NC(=O)[C@H](CC(=O)O)NC1=O)NC(=O)[C@H](CC(C)(C)C)NC(=O)[C@H](CC(=O)O)NC2=O` (stereo partly drawn) [I-2485, Ac-PL3-Asp-Npg-B5-Asp-3COOHF-Gln-Ala-Phe-Leu-PyrS2-2F3MeF-2F3MeW-Ala-NH2], the IC50 is more than 20 µM in assay [1] and 4.75 µM in assay [2].
Regarding `CC(=O)N1CCC[C@]12CC=CCCCC1(CCCC=CCCCOC(=O)N3CC[C@@](C(=O)N[C@@H](Cc4ccccc4C(F)(F)F)C(=O)N[C@@H](Cc4csc5c(Cl)cccc45)C(=O)N[C@@H](CCC(N)=O)C(N)=O)(C3)NC(=O)[C@H](CC(C)C)NC(=O)[C@H](Cc3ccccc3)NC(=O)[C@H](C)NC(=O)[C@H](C)NC(=O)[C@H](Cc3cccc(C(=O)O)c3)NC(=O)[C@H](CC(=O)O)NC1=O)NC(=O)[C@H](CC(C)(C)C)NC(=O)[C@H](CC(=O)O)NC2=O` (stereo partly drawn) [I-2486, Ac-PL3-Asp-Npg-B5-Asp-3COOHF-Ala-Ala-Phe-Leu-PyrS2-2F3MeF-7C1BztA-Gln-NH2], the IC50 amounted to 3.7 µM in assay [1] and 0.034 µM in assay [2].
`CC(=O)N1CCC[C@]12CC=CCCCC1(CCCC=CCCCOC(=O)N3CC[C@@](C(=O)N[C@@H](Cc4ccccc4C(F)(F)F)C(=O)N[C@@H](Cc4csc5c(Cl)cccc45)C(=O)N[C@@H](C)C(N)=O)(C3)NC(=O)[C@H](CC(C)C)NC(=O)[C@H](Cc3ccccc3)NC(=O)[C@H](C)NC(=O)[C@H](CCC(N)=O)NC(=O)[C@H](Cc3cccc(C(=O)O)c3)NC(=O)[C@H](CC(=O)O)NC1=O)NC(=O)[C@H](CC(C)(C)C)NC(=O)[C@H](CC(=O)O)NC2=O` (stereo partly drawn) [I-2487, Ac-PL3-Asp-Npg-B5-Asp-3COOHF-Gln-Ala-Phe-Leu-PyrS2-2F3MeF-7C1BztA-Ala-NH2]: the IC50 came to 4.2 µM in assay [1] and 0.036 µM in assay [2].
Take `CC(=O)N1CCC[C@]12CC=CCCCC1(CCCC=CCCCOC(=O)N3CC[C@@](C(=O)N[C@@H](Cc4ccccc4C(F)(F)F)C(=O)N[C@@H](Cc4csc5c(F)cccc45)C(=O)N[C@@H](CCC(N)=O)C(N)=O)(C3)NC(=O)[C@H](CC(C)C)NC(=O)[C@H](Cc3ccccc3)NC(=O)[C@H](C)NC(=O)[C@H](C)NC(=O)[C@H](Cc3cccc(C(=O)O)c3)NC(=O)[C@H](CC(=O)O)NC1=O)NC(=O)[C@H](CC(C)(C)C)NC(=O)[C@H](CC(=O)O)NC2=O` (stereo partly drawn) [I-2488, Ac-PL3-Asp-Npg-B5-Asp-3COOHF-Ala-Ala-Phe-Leu-PyrS2-2F3MeF-7FBztA-Gln-NH2]: the IC50 is 3.6 µM in assay [1] and 0.026 µM in assay [2].
For `CC(=O)N1CCC[C@]12CC=CCCCC1(CCCC=CCCCOC(=O)N3CC[C@@](C(=O)N[C@@H](Cc4ccccc4C(F)(F)F)C(=O)N[C@@H](Cc4csc5c(F)cccc45)C(=O)N[C@@H](C)C(N)=O)(C3)NC(=O)[C@H](CC(C)C)NC(=O)[C@H](Cc3ccccc3)NC(=O)[C@H](C)NC(=O)[C@H](CCC(N)=O)NC(=O)[C@H](Cc3cccc(C(=O)O)c3)NC(=O)[C@H](CC(=O)O)NC1=O)NC(=O)[C@H](CC(C)(C)C)NC(=O)[C@H](CC(=O)O)NC2=O` (stereo partly drawn) [I-2489, Ac-PL3-Asp-Npg-B5-Asp-3COOHF-Gln-Ala-Phe-Leu-PyrS2-2F3MeF-7FBztA-Ala-NH2], the values for the IC50 in assay [1] and in assay [2] were 7.4 µM and 0.029 µM, respectively.
With `CC(=O)N1CCC[C@]12CC=CCCCC1(CCCC=CCCCOC(=O)N3CC[C@@](C(=O)N[C@@H](Cc4ccccc4C(F)(F)F)C(=O)N[C@@H](Cc4csc5cccc(Cl)c45)C(=O)N[C@@H](CCC(N)=O)C(N)=O)(C3)NC(=O)[C@H](CC(C)C)NC(=O)[C@H](Cc3ccccc3)NC(=O)[C@H](C)NC(=O)[C@H](C)NC(=O)[C@H](Cc3cccc(C(=O)O)c3)NC(=O)[C@H](CC(=O)O)NC1=O)NC(=O)[C@H](CC(C)(C)C)NC(=O)[C@H](CC(=O)O)NC2=O` (stereo partly drawn) [I-2490, Ac-PL3-Asp-Npg-B5-Asp-3COOHF-Ala-Ala-Phe-Leu-PyrS2-2F3MeF-4C1BztA-Gln-NH2], the IC50 is 6.4 µM in assay [1] and 0.039 µM in assay [2].
For the molecule `CC(=O)N1CCC[C@]12CC=CCCCC1(CCCC=CCCCOC(=O)N3CC[C@@](C(=O)N[C@@H](Cc4ccccc4C(F)(F)F)C(=O)N[C@@H](Cc4csc5cccc(Cl)c45)C(=O)N[C@@H](C)C(N)=O)(C3)NC(=O)[C@H](CC(C)C)NC(=O)[C@H](Cc3ccccc3)NC(=O)[C@H](C)NC(=O)[C@H](CCC(N)=O)NC(=O)[C@H](Cc3cccc(C(=O)O)c3)NC(=O)[C@H](CC(=O)O)NC1=O)NC(=O)[C@H](CC(C)(C)C)NC(=O)[C@H](CC(=O)O)NC2=O` (stereo partly drawn) [I-2491, Ac-PL3-Asp-Npg-B5-Asp-3COOHF-Gln-Ala-Phe-Leu-PyrS2-2F3MeF-4C1BztA-Ala-NH2], the IC50 in assay [1] was 6.1 µM; in assay [2] it was 0.049 µM.
Take `CC(=O)N1CCC[C@]12CC=CCCCC1(CCCC=CCCCOC(=O)N3CC[C@@](C(=O)N[C@@H](Cc4ccsc4)C(=O)N[C@@H](Cc4csc5ccccc45)C(=O)N[C@@H](CCC(N)=O)C(N)=O)(C3)NC(=O)[C@H](CC(N)=O)NC(=O)[C@H](Cc3ccccc3)NC(=O)[C@H](C)NC(=O)C3(CCCC3)NC(=O)[C@H]([C@@H](C)O)NC(=O)[C@H](CC(N)=O)NC1=O)NC(=O)[C@H](CC(C)(C)C)NC(=O)[C@H](CC(=O)O)NC2=O` (stereo partly drawn) [I-2493, Ac-PL3-Asp-Npg-B5-Asn-Thr-CyLeu-Ala-Phe-Asn-PyrS2-3Thi-BztA-Gln-NH2]: the IC50 is more than 20 µM in assay [1] and 0.267 µM in assay [2].
`CC(=O)N1CCC[C@]12CC=CCCCC1(CCCC=CCCCOC(=O)N3CC[C@@](C(=O)N[C@@H](Cc4ccsc4)C(=O)N[C@@H](Cc4csc5ccccc45)C(=O)N[C@@H](CC(=O)N(C)C)C(N)=O)(C3)NC(=O)[C@H](CC(N)=O)NC(=O)[C@H](Cc3ccccc3)NC(=O)[C@H](C)NC(=O)C(C)(C)NC(=O)[C@H]([C@@H](C)O)NC(=O)[C@H](CC(N)=O)NC1=O)NC(=O)[C@H](CC(C)(C)C)NC(=O)[C@H](CC(=O)O)NC2=O` (stereo partly drawn) [I-2494, Ac-PL3-Asp-Npg-B5-Asn-Thr-Aib-Ala-Phe-Asn-PyrS2-3Thi-BztA-Me2Asn-NH2]: the figures for the IC50 in assay [1] and in assay [2] were more than 20 µM and 0.102 µM, respectively.
As for `CNC(=O)C[C@H](NC(=O)[C@H](Cc1csc2ccccc12)NC(=O)[C@H](Cc1ccsc1)NC(=O)[C@]12CCN(C1)C(=O)OCCCC=CCCCC1(CCCC=CC[C@]3(CCCN3C(C)=O)C(=O)N[C@@H](CC(=O)O)C(=O)N[C@@H](CC(C)(C)C)C(=O)N1)C(=O)N[C@@H](CC(N)=O)C(=O)N[C@@H]([C@@H](C)O)C(=O)NC(C)(C)C(=O)N[C@@H](C)C(=O)N[C@@H](Cc1ccccc1)C(=O)N[C@@H](CC(N)=O)C(=O)N2)C(N)=O` (stereo partly drawn) [I-2495, Ac-PL3-Asp-Npg-B5-Asn-Thr-Aib-Ala-Phe-Asn-PyrS2-3Thi-BztA-MeAsn-NH2], the IC50 in assay [1] was more than 20 µM; in assay [2] it was 0.095 µM.
With `CC(=O)N1CCC[C@]12CC=CCCCC1(CCCC=CCCCOC(=O)N3CC[C@@](C(=O)N[C@@H](Cc4ccsc4)C(=O)N[C@@H](Cc4csc5ccccc45)C(=O)N[C@@H](CC(N)=O)C(N)=O)(C3)NC(=O)[C@H](CC(=O)N(C)C)NC(=O)[C@H](Cc3ccccc3)NC(=O)[C@H](C)NC(=O)C(C)(C)NC(=O)[C@H]([C@@H](C)O)NC(=O)[C@H](CC(N)=O)NC1=O)NC(=O)[C@H](CC(C)(C)C)NC(=O)[C@H](CC(=O)O)NC2=O` (stereo partly drawn) [I-2496, Ac-PL3-Asp-Npg-B5-Asn-Thr-Aib-Ala-Phe-Me2Asn-PyrS2-3Thi-BztA-Asn-NH2], the results for the IC50 in assay [1] and in assay [2] were more than 20 µM and 0.106 µM, respectively.
